Data taken from ChEMBL document CHEMBL1136474, “4-(4-alkylpiperazin-1-yl)phenyl group: a novel class of basic side chains for selective estrogen receptor modulators” (2003).

Assays:
[1] = target: Estrogen receptor (Homo sapiens) (UniProt Q92731+P03372); experiment: Binding affinity towards estrogen receptor (ER) using [3H]17-beta-estradiol as radioligand in human breast cancer MCF-7 cells relative to compound 1; assay type: cell-based; conditions: MCF7
Rattus norvegicus = experiment: Plasma cholesterol lowering effect was determined in Sprague-Dawley rats at a dose of 1 mg/kg/day for 4 days; assay type: functional
[2] = target: T1, Estrogen receptor (Rattus norvegicus) (UniProt P06211+Q62986); conditions: Uterus
Description: Uterotrophic effect as uterine weight gain in rats at 1 mg/kg/day oral dose for 4 days

[3] = target: T1, Estrogen receptor (Rattus norvegicus); experiment: Uterotrophic effect as uterine weight gain in rats at 10 mg/kg/day oral dose for 4 days; assay type: functional, organism-based; conditions: Uterus

Row | Compound | relative binding affinity (RBA) [1] | Uterotrophic effect [2] | Increase [3] | Decrease (Rattus norvegicus)
1 | CN(C)CCOc1ccc(C2=CC3(CCc4cc(O)ccc43)c3ccc(O)cc32)cc1 (stereo unspecified) | 85 | – | – | 6%
2 | Cc1cc(C2=CC3(CCc4cc(O)ccc43)c3ccc(O)cc32)cc(C)c1OCCN1CCCCC1 (stereo unspecified) | 22 | – | – | -9.1%
3 | Oc1ccc2c(c1)CCC21C=C(c2cccc(OCCN3CCCCC3)c2)c2cc(O)ccc21 (stereo unspecified) | 47 | – | – | –
4 | Oc1ccc2c(c1)CCC21C=C(c2ccc(OCCN3CCCCC3)c(F)c2)c2cc(O)ccc21 (stereo unspecified) | 247 | – | – | 16%
5 | Oc1ccc2c(c1)CCC21C=C(c2ccc(OCCCN3CCCCC3)cc2)c2cc(O)ccc21 (stereo unspecified) | 460 | – | – | 8.5%
6 | Cc1cc(C2=CC3(CCc4cc(O)ccc43)c3ccc(O)cc32)ccc1OCCN1CCCCC1 (stereo unspecified) | 122 | – | – | 4.5%
7 | Cc1cc(OCCN2CCCCC2)ccc1C1=CC2(CCc3cc(O)ccc32)c2ccc(O)cc21 (stereo unspecified) | 70 | – | – | -12%
8 | CCN(CC)CCOc1ccc(C2=CC3(CCc4cc(O)ccc43)c3ccc(O)cc32)cc1 (stereo unspecified) | 153 | – | – | 18%
9 | Oc1ccc2c(c1)CCC21C=C(c2ccc(OCCN3CCCC3)cc2)c2cc(O)ccc21 (stereo unspecified) | 118 | – | – | 17%
10 | Oc1ccc2c(c1)CCC21C=C(c2ccc(OCCN3CCCCC3)cc2)c2cc(O)ccc21 (stereo unspecified) | – | – | – | 44%

Further lines, with some results ahead:

Row | relative binding affinity (RBA) [1] | Uterotrophic effect [2] | Increase [3] | Compound | Decrease (Rattus norvegicus)
11 | 207 | – | – | CN1CCN(c2ccc(C3=CC4(CCc5cc(O)ccc54)c4ccc(O)cc43)cc2)CC1 (stereo unspecified) | –
12 | 42 | 185 | – | CC(C)CN1CCN(c2ccc(C3=CC4(CCc5cc(O)ccc54)c4ccc(O)cc43)cc2)CC1 (stereo unspecified) | 87%
13 | 428 | – | – | CC1CCN(CCOc2ccc(C3=CC4(CCc5cc(O)ccc54)c4ccc(O)cc43)cc2)CC1 (stereo unspecified) | 18%
14 | 103 | – | – | CC(C)N1CCN(c2ccc(C3=CC4(CCc5cc(O)ccc54)c4ccc(O)cc43)cc2)CC1 (stereo unspecified) | 21%
15 | 956 | – | – | Oc1ccc2c(c1)CCC21C=C(c2ccc(CCCN3CCCCC3)cc2)c2cc(O)ccc21 (stereo unspecified) | 6%
16 | 387 | 114 | – | CCC1CCCN(c2ccc(C3=CC4(CCc5cc(O)ccc54)c4ccc(O)cc43)cc2)CC1 (stereo unspecified) | 32%
17 | 125 | 139 | 26.5% | Oc1ccc2c(c1)CCC21C=C(c2ccc(N3CCCCC3)cc2)c2cc(O)ccc21 (stereo unspecified) | 51%
18 | 181 | 208 | – | CCN1CCN(c2ccc(C3=CC4(CCc5cc(O)ccc54)c4ccc(O)cc43)cc2)CC1 (stereo unspecified) | 52%
19 | 186 | 223 | – | CCCN1CCN(c2ccc(C3=CC4(CCc5cc(O)ccc54)c4ccc(O)cc43)cc2)CC1 (stereo unspecified) | 55%
